From ChEMBL document CHEMBL4017483, “Potent and selective oxytocin receptor agonists without disulfide bridges” (Bioorg Med Chem Lett, 2017)
Bridge positions count the residues as written; N and C are the ends. Square brackets hold non-standard residues; d marks the D form. Peptide text beside a SMILES is read from it. Mpa = O=C(O)CCS

Experiments:
Oxytocin receptor = molecular target: T1, Oxytocin receptor (Homo sapiens, UniProt P30559); test: Agonist activity at human OTR expressed in CHO cells assessed as calcium mobilization measured after 30 mins by Fluo-4-AM dye based FLIPR assay; format: functional, cell-based
T1 sequence (P30559 whole entry): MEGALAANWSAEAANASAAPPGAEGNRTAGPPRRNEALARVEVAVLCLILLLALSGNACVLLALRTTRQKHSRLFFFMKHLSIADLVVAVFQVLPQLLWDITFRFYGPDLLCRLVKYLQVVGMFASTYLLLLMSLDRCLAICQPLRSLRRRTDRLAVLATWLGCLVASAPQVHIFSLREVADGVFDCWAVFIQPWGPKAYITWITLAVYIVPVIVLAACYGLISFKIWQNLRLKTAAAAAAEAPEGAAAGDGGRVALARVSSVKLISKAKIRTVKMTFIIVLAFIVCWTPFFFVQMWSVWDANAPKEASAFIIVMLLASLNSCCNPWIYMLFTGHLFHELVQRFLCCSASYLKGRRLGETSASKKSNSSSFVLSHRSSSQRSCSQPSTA

Vasopressin V1a receptor = Vasopressin V1a receptor (Homo sapiens, UniProt P37288); test: Agonist activity at human V1a receptor expressed in CHO cells assessed as calcium mobilization measured after 30 mins by Fluo-4-AM dye based FLIPR assay; format: cell-based
Vasopressin V1b receptor = molecular target: T2, Vasopressin V1b receptor (Homo sapiens, UniProt P47901); test: Agonist activity at human V1b receptor expressed in CHO cells assessed as calcium mobilization measured after 30 mins by Fluo-4-AM dye based FLIPR assay; format: cell-based
T2 sequence (P47901 whole entry): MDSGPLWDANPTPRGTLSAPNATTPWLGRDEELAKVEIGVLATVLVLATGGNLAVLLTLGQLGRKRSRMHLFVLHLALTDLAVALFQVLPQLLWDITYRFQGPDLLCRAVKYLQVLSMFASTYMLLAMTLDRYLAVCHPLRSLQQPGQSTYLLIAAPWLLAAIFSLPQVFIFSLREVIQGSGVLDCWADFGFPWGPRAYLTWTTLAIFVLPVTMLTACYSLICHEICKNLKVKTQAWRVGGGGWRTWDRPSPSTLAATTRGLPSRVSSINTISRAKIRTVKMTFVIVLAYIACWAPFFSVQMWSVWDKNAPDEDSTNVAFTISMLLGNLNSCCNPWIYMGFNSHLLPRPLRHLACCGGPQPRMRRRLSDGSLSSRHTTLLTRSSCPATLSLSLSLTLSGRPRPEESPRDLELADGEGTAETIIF

Homo sapiens [1] = species: Homo sapiens; test: Selectivity ratio of EC50 for human V1a receptor to EC50 for human OTR
Homo sapiens [2] = species: Homo sapiens; test: Selectivity ratio of EC50 for human V1b receptor to EC50 for human OTR

Chain of Vasopressin V1a receptor (P37288 whole entry): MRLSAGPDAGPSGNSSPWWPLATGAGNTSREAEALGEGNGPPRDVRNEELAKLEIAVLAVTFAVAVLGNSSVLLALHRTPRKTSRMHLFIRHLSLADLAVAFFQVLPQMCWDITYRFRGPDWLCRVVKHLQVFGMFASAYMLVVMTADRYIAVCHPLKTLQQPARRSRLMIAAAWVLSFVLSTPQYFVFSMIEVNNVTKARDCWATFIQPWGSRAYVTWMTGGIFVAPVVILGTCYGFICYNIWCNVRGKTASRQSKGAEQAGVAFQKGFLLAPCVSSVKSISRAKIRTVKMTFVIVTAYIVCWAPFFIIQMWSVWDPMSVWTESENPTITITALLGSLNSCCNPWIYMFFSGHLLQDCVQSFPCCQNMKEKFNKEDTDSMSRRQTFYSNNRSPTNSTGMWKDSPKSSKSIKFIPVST

SMILES	EC50 (Oxytocin receptor)	EC50 (Vasopressin V1a receptor)	EC50 (Vasopressin V1b receptor)	Ratio EC50 (Homo sapiens [1])	Ratio EC50 (Homo sapiens [2])
CC[C@H](C)[C@@H]1NC(=O)[C@H](CC(C)C)NC(=O)CCSSC[C@@H](C(=O)N2CCC[C@H]2C(=O)N[C@@H](CC(C)C)C(=O)NCC(N)=O)NC(=O)[C@H](CC(N)=O)NC(=O)[C@H](CCC(N)=O)NC1=O ([Mpa]LIQNCPLG-NH2; disulfide 1-6)	3.6 nM	> 100 nM	> 100 nM	> 10	> 10
CC[C@H](C)[C@@H]1NC(=O)[C@H](Cc2ccc(O)cc2)NC(=O)CCSSC[C@@H](C(=O)N2CCC[C@H]2C(=O)N[C@@H](CC(C)C)C(=O)N(C)CC(N)=O)NC(=O)[C@H](CC(N)=O)NC(=O)[C@H](CCC(N)=O)NC1=O	0.12 nM	> 100 nM	> 100 nM	> 100	> 100
